{"source": "patent CN110668932A", "about": "“一种共晶体及制备方法、包含共晶体的药物组合物及用途” (Individual, priority 2019, dated 2020)", "key": {"[1]": {"test": "Liver injury side effect experiment in mice, ALT and AST (Experimental Example 5)", "type": "in vivo, mouse", "conditions": "0.012 g/kg, gavage, 2 weeks, Kunming mice; for ALT / ASL: serum, compared with normal control group"}, "[2]": {"tested_on": "metabolic syndrome model rats (代谢综合征模型大鼠)", "test": "Effect in metabolic syndrome model rats (Experimental Example 4)", "type": "in vivo, rat", "conditions": "10 mL/kg, once daily, gavage, 8 weeks; for serum LDL-C level vs control group / serum TG level vs control group: compared with control group (standard feed); for serum LDL-C level vs model group / serum TG level vs model group: compared with model group"}, "[3]": {"tested_on": "human gastric cancer SGC-7901 cells, human liver cancer Bet-7402 cells, human lung cancer H460 cells (人胃癌SGC-7901细胞、人肝癌Bet-7402细胞、人肺癌H460细胞)", "test": "In vivo antitumour experiment in mice (Experimental Example 1)", "set-up": "species or system mouse", "conditions": "2 mg/kg active ingredient, oral, twice daily, 15-20 days; for tumor size / weight vs negative control group: compared with negative control group; for tumor inhibition effect: mice"}}}
{"smiles": "COc1cc(CCC(=O)CC(=O)CCc2ccc(O)c(OC)c2)ccc1O", "note": "[SHCUR, 四氢姜黄素]", "values": [{"measurement": "liver injury effect", "setting": "[1]", "value": "没有明显肝损伤作用"}, {"measurement": "ALT", "setting": "[1]", "value": "与正常对照组相近"}, {"measurement": "ASL", "setting": "[1]", "value": "与正常对照组相近"}, {"measurement": "serum LDL-C level vs control group", "setting": "[2]", "value": "较高"}, {"measurement": "serum TG level vs control group", "setting": "[2]", "value": "较高"}, {"measurement": "serum LDL-C level vs model group", "setting": "[2]", "value": "较低"}, {"measurement": "serum TG level vs model group", "setting": "[2]", "value": "较低"}, {"measurement": "tumor size / weight vs negative control group", "setting": "[3]", "value": "肿瘤明显减小,低于阴性对照组"}, {"measurement": "tumor inhibition effect", "setting": "[3]", "value": "具有较好的抑制肿瘤的效果"}]}
{"smiles": "COc1cc(CCC(=O)CC(=O)CCc2ccc(O)cc2)ccc1O", "note": "[SHDMCUR, 四氢去甲氧基姜黄素]", "values": [{"measurement": "liver injury effect", "setting": "[1]", "value": "没有明显肝损伤作用"}, {"measurement": "ALT", "setting": "[1]", "value": "与正常对照组相近"}, {"measurement": "ASL", "setting": "[1]", "value": "与正常对照组相近"}, {"measurement": "serum LDL-C level vs control group", "setting": "[2]", "value": "较高"}, {"measurement": "serum TG level vs control group", "setting": "[2]", "value": "较高"}, {"measurement": "serum LDL-C level vs model group", "setting": "[2]", "value": "较低"}, {"measurement": "serum TG level vs model group", "setting": "[2]", "value": "较低"}, {"measurement": "tumor size / weight vs negative control group", "setting": "[3]", "value": "肿瘤明显减小,低于阴性对照组"}, {"measurement": "tumor inhibition effect", "setting": "[3]", "value": "具有较好的抑制肿瘤的效果"}]}
{"smiles": "O=C(CCc1ccc(O)cc1)CC(=O)CCc1ccc(O)cc1", "note": "[四氢双去甲氧基姜黄素]", "values": [{"measurement": "liver injury effect", "setting": "[1]", "value": "没有明显肝损伤作用"}, {"measurement": "ALT", "setting": "[1]", "value": "与正常对照组相近"}, {"measurement": "ASL", "setting": "[1]", "value": "与正常对照组相近"}, {"measurement": "serum LDL-C level vs control group", "setting": "[2]", "value": "较高"}, {"measurement": "serum TG level vs control group", "setting": "[2]", "value": "较高"}, {"measurement": "serum LDL-C level vs model group", "setting": "[2]", "value": "较低"}, {"measurement": "serum TG level vs model group", "setting": "[2]", "value": "较低"}, {"measurement": "tumor size / weight vs negative control group", "setting": "[3]", "value": "肿瘤明显减小,低于阴性对照组"}, {"measurement": "tumor inhibition effect", "setting": "[3]", "value": "具有较好的抑制肿瘤的效果"}]}
{"smiles": "CC(=O)O[C@H]1C(=O)[C@@]2(C)[C@H]([C@H](OC(=O)c3ccccc3)[C@]3(O)C[C@H](OC(=O)[C@H](O)[C@@H](NC(=O)c4ccccc4)c4ccccc4)C(C)=C1C3(C)C)[C@]1(OC(C)=O)CO[C@@H]1C[C@@H]2O", "note": "[紫杉醇]", "values": [{"measurement": "tumor size / weight vs negative control group", "setting": "[3]", "value": "肿瘤明显减小,低于阴性对照组"}, {"measurement": "tumor inhibition effect", "setting": "[3]", "value": "具有较好的抑制肿瘤的效果"}]}
